# PubChem BioAssay (NCI)
#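 Step 1: Grow cells in 96-well plates. Step 2: Expose to compound for 48 hours at 5 concentrations. Step 3: Interpolate endpoints linearly; if unreached, use highest concentration. Here, GI50 denotes the concentration required for 50% inhibition of growth. At the TGI there is no net growth.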
# Key:
# Assay in all cases: inhibition of tumour cell growth, NCI panel, 48 h
# A549 NSCLC = test system: A549 NSCLC
# COLO 205 colon = test system: COLO 205 colon
# K-562 leukemia = test system: K-562 leukemia
# KM12 colon = test system: KM12 colon
# OVCAR-5 ovarian = test system: OVCAR-5 ovarian
# SN12C renal = test system: SN12C renal
# UACC-257 melanoma = test system: UACC-257 melanoma
# HOP-92 NSCLC = test system: HOP-92 NSCLC
# DU-145 prostate = test system: DU-145 prostate
# MDA-MB-231 breast = test system: MDA-MB-231 breast
SMILES,TGI (A549 NSCLC) [µM],TGI (COLO 205 colon) [µM],TGI (K-562 leukemia) [µM],TGI (KM12 colon) [µM],TGI (OVCAR-5 ovarian) [µM],TGI (SN12C renal) [µM],TGI (UACC-257 melanoma) [µM],TGI (HOP-92 NSCLC) [µM],GI50 (A549 NSCLC) [µM],GI50 (COLO 205 colon) [µM],GI50 (DU-145 prostate) [µM],GI50 (HOP-92 NSCLC) [µM],GI50 (K-562 leukemia) [µM],GI50 (KM12 colon) [µM],GI50 (MDA-MB-231 breast) [µM],GI50 (SN12C renal) [µM],GI50 (UACC-257 melanoma) [µM],TGI (DU-145 prostate) [µM],TGI (MDA-MB-231 breast) [µM],GI50 (OVCAR-5 ovarian) [µM]
CC(=O)NNc1nc(C)c(C(=O)/C=C/c2ccc(/C=C/C(=O)c3sc(NNC(C)=O)nc3C)cc2)s1,> 100,> 100,> 100,> 100,> 100,> 100,> 100,,,,,,,,,,,,,
Nc1ncnc2c1nnn2C1C=C(CO)C(O)C1O (stereo not drawn),> 100,> 50.6,> 100,> 100,> 100,> 82.7,> 100,> 80.2,,,,,,,,,,,,
CN1CCc2c1nc(-c1cccnc1)c1c2N(C)CC1,> 100,> 100,> 100,> 100,> 100,> 100,> 100,> 100,,,,,,,,,,,,
O=C(COc1ccc(Cl)cc1)N1CCN(C(=O)COc2ccc(Cl)cc2)c2ccccc21,> 100,> 100,> 100,> 100,> 100,,> 100,> 100,,,,,,,,,,,,
Nc1cc2cccc[n+]2c2cccc(Cl)c12,,,,65.2,,42.1,27.4,,30.9,15.5,46.4,51,11.2,4.1,17,7.16,11.3,,,
CC(=O)OC(C)C(OC(C)=O)C(OC(C)=O)C(/C=C/C1CC=CC(=O)O1)OC(C)=O (stereo not drawn),,64.6,,61,> 100,36.4,42.1,64.6,,22,18.8,20.8,,22.8,21.8,10.5,19.5,43.1,53.6,82.8
CCC1C(=O)OCc2c1cc1n(c2=O)C(CC)c2c-1nc1ccccc1c2Cl (stereo not drawn),> 100,37,> 100,96.6,54.6,,92.6,> 100,,,,,,,,,,,,
CC(=O)Nc1ccc(C(=O)N2N=C(C)/C(=C/c3cccc([N+](=O)[O-])c3)C2=O)cc1,> 100,> 100,> 100,> 100,> 100,> 100,> 100,,,,,,,,,,,,,
NC(=O)C12CC3CC(CC(Br)(C3)C1)C2,> 100,,,> 100,> 100,> 100,> 100,> 100,,,,,,,,,,,,
CC(C)=Nn1cnc(C(=N)C#N)c1N,> 100,> 100,> 100,,> 100,,> 100,,,,,,,,,,,> 100,,
CCC[CH2][Sn]([CH2]CCC)([O]C(=O)/C=C/c1ccccc1F)[O]C(=O)/C=C/c1ccccc1F,3.91,2.41,1.4,2.72,2.83,2.29,1.76,1.37,1.88,0.907,,0.415,0.232,1.38,,1.03,0.465,,,1.5
CC(=O)C12C[C@](C#N)(N3CCCCCC3)C1C=Cc1ccccc12 (stereo partly drawn),> 100,> 100,> 100,> 100,,> 100,> 100,,,,,,,,,,,> 100,> 100,
Cc1ccc(Sc2oc(-c3ccc(C)cc3)nc2[P+](c2ccccc2)(c2ccccc2)c2ccccc2)cc1,1.24,,1.52,1.3,1.59,1.21,1.15,0.722,0.305,,0.416,0.178,0.302,0.338,0.28,0.311,0.303,1.48,1.03,0.416
C#C[C@H]1CCCCCC1O (stereo partly drawn),> 100,> 100,> 100,> 100,> 100,> 100,> 100,> 100,,,,,,,,,,,,
COC(=O)/C(C#N)=C1\CCc2ccccc21,> 100,> 100,> 100,> 100,> 100,> 100,> 100,> 100,,,,,,,,,,,,
CCN(CC)CCC(CNc1c(C)cnc2cc(Cl)ccc12)c1ccc(Cl)cc1 (stereo not drawn),32.2,,,25.3,24,28.8,,,16,,12.8,,,11,,12.8,,26,,8.93
COc1ccc(-c2onc(-c3c(C)cc(C)cc3C)c2C2=NCCN2)cc1,> 100,49,> 100,> 100,> 100,> 100,46.1,,,,,,,,,,,,,
O=C(NCC(=O)N1CCOC1=O)OCc1ccccc1,> 100,> 100,> 100,> 100,,> 100,> 100,> 100,,,,,,,,,,,,
COC(=O)C#CCC1CCCC1C1SCCS1 (stereo not drawn),> 100,> 100,> 100,> 100,> 100,> 100,> 100,> 100,,,,,,,,,,,,
O=C1c2ccccc2C(=O)N1C1(C(=O)NC2(C(=O)O)CCCC2)CCCC1,> 100,> 100,> 100,> 100,> 100,> 100,> 100,,,,,,,,,,,> 100,> 100,
COC/N=C(/N)NC#N,> 100,39.2,> 100,> 100,> 100,> 100,> 100,> 100,,,,,,,,,,,,
CC1=NN(C(=O)c2ccc(Cl)cc2)C(=O)/C1=C/c1ccc(Cl)cc1,> 100,> 100,> 100,> 100,> 100,> 100,> 100,> 100,,,,,,,,,,,,
N#CC(C#N)=C(N)/C(C#N)=C/c1ccc2[nH]ccc2c1,> 100,> 100,> 100,> 100,> 100,> 100,> 100,> 100,,,,,,,,,,> 100,,
